Data published in patent US12171813B2, “Methods of and compositions for reducing gene expression and/or activity” (Christiana Care Gene Editing Institute, Inc., priority 2021, dated 2024).

How the values were obtained:
EGFR gene = assay: Genomic DNA PCR assessment of large deletions in EGFR gene; format: cell-based, Human; conditions: gRNA alone, not paired
Protocol: After CRISPR reactions, genomic DNA was prepared for PCR amplification of the target region from EGFR gene. PCR-amplified DNA was then analyzed by electrophoresis through a 1% agarose gel for 75 minutes at 80v. DNA was stained with SYBR Safe. Lanes 1 and 10: NEB 2 Log Ladder; Lane 2: Scrambled gRNA; Lane 3: L858R gRNA alone; Lane 4: EGFR 21-22 SureKill gRNA 19 alone; Lane 5: EGFR 21-22 SureKill gRNA 27 alone; Lane 6: EGFR 21-22 SureKill gRNA 28+L858R gRNA; Lane 7: EGFR 21-22 SureKill gRNA 27+L858R gRNA; Lane 8: EGFR 21-22 SureKill gRNA 19+L858R gRNA; Lane 9: EGFR 21-22 SureKill gRNA 28 alone. On the left side of the image are markers indicating DNA size in bp. Expected dropout size of EGFR 21-22 SureKill gRNA 19+L858R gRNA: 316 bp. Expected dropout size of EGFR 21-22 SureKill gRNA 27+L858R gRNA: 417 bp. Expected dropout size of EGFR 21-22 SureKill gRNA 28+L858R gRNA: 463 bp. Dropout bands are indicated by asterisks.
Human lung squamous cell carcinoma NCI-H1703 clone 44-25 cells were derived from NCI-H1703 cells (#CRL-5889) which were purchased from ATCC (Manassas, VA, USA). NCI-H1703 clone 44-25 cells contains R34G mutation (C 4 G) in NFE2L2 gene. […]
Transfections were carried out using the Lonza Nuclefector 4d. […] RNPs were complexed at 250:50 pmol for 30 minutes prior to transfection, during which time cells were harvested and counted. […]

NFE2L2 gene = assay: Screening of SureKill guide RNAs in the NFE2L2 gene for ability to induce indels; format: cell-based, Human; conditions: transfections of individual guide RNAs (spCas9 RNP); NCI-H1703 clone 44-25 cells; DECODR
Protocol: Human lung squamous cell carcinoma NCI-H1703 clone 44-25 cells were derived from NCI-H1703 cells (#CRL-5889) which were purchased from ATCC (Manassas, VA, USA). NCI-H1703 clone 44-25 cells contains R34G mutation (C 4 G) in NFE2L2 gene. H1703 clone 44-25 cells were cultured in ATCC formulation RPMI-1640 with 10% FBS. T75 flasks were used and cells were split 1:5 upon reaching 90% confluency. Human lung adenocarcinoma cells (Dist. Lot. No. LG0703-F948-PDC) were acquired from the National Institute of Health's National Cancer Institute's Patient-Derived Models Repository (PDMR). This PDMR cell line contains the L858R mutation (T 4 G) in the EGFR gene. The PDMR cells were maintained in Advanced DMEM/F12 media containing 10% FBS, 0.4 μg/mL hydrocortisone, 0.01 μg/mL EGF Recombinant Human Protein, 24 μg/mL adenine, and 2 mM L-Glutamine. T75s were used and cells were split 1:3 upon reaching 90% confluency. All cultures were maintained in cell culture incubators at 37° C. and 5% CO2.
Ribonucleoproteins (RNP) are complexed by incubating 250 pmol of purified synthetic gRNA (Synthego Corporation, Redwood City, CA) with 50 pmol of purified spCas9 (Synthego Corporation, Redwood City, CA) at room temperature in nuclease-free 1× TE buffer for 15 minutes.
Transfections were carried out using the Lonza Nuclefector 4d. Cultures in t75s at 90% confluence were split 1:2 24 hours prior to transfection. RNPs were complexed at 250:50 pmol for 30 minutes prior to transfection, during which time cells were harvested and counted. All reactions were 100 μL and contained 1 e6 cells. Lonza SF solution and Nucleofector program CM-130 were used in all transfections of the H1703 cell line. Lonza SE solution and Nucleofector program CA-137 were used in all transfections of the PDMR. After transfection, 500 μL of media that had been equilibrated to cell culture CO2 and temperature conditions was added to each 100 μL cuvettes. Cuvettes were then placed in the incubator. After 20 minutes, the entire content of each cuvette was seeded into 3 mL of media in a 6 well plate. After 72 hours, samples were dissociated using 200 μL Trypsin 0.25% for 5 minutes. 800 μL culture media was used to quench and split into 1.5 mL tubes each containing 500 μL of the sample. Tubes were spun at 300×g for 5 minutes. One of the tubes was placed in the −20° C. freezer and the other was resuspended in 500 μL of Trizol for RNA extraction and cDNA synthesis.
All sequencing was performed on the Applied Biosystems SeqStudio. The BigDye Terminator v3.1 Cycle Sequencing Kit was used to prepare samples for sequencing. Resulting sequences were analyzed with DECODR to determine indel rates (Bloh et al., CRISPR J. 4:120-31 (2021)).
In some cancers, human NRF2 contains a mutation, R34G, that creates a novel PAM site making it a targetable sequence by CRISPR. By combining the R34G-targeting CRISPR with another CRISPR of high efficiency in a downstream intronic region, exon skipping can be induced, resulting in a higher efficiency of functional knockout than the R34G targeting CRISPR alone. To find a suitable SureKill guide RNA (gRNA) to pair with the R34G targeting CRISPR, we selected the intron between exons 3 and 4 (FIG. 2). A series of gRNAs were created in this region and screened for their ability to induce indels, a measure of their activity (Table 2).
In Table 2, all sequences are listed from 5′ to 3′. Indel %, a measure of CRISPR activity, is based on transfections of individual guide RNAs. All guide RNAs, with the exception of R34G, were designed in the intron between exons 3 and 4.

Substance	large deletions (genomic DNA PCR) (EGFR gene)	indel % (NFE2L2 gene) [%]
L858R gRNA: guide RNA TCAAGATCACAGATTTTGGG, SEQ ID NO:8, targets EGFR L858R mutation (listed as DNA, chemistry not given here)	does not induce a large deletion	–
R34G gRNA: guide RNA GATATAGATCTTGGAGTAAG, SEQ ID NO:1, targets NRF2 R34G mutation (listed as DNA, chemistry not given here)	–	83
